Data published in patent publication US8299056B2 (Signal Pharmaceuticals, LLC, priority 2008, dated 2012).
pIC50: −log10 of the molar value. Like-named read-outs stand apart in the source and are kept apart here.

Molecular target: T1, Syk (Homo sapiens, UniProt P43405)
T1 construct: purchased Carna Biosciences
Assay: Syk HTRF assay
Format: biochemical
Procedure, shortened: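 HTRF kinase assay in HEPES pH 7.6 buffer with MgCl2, DTT and Triton X100; start mix of 87.5 μM ATP and 80 nM biotinylated peptide, 1 h at room temperature. EDTA stop, then Eu-anti-phosphotyrosine/streptavidin-DyLight 647 detection, read as 665/615 nm emission ratio.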

[1] = activity levels A-D, read-out: Activity Level (IC50 in the Syk HTRF assay)
[2] = read-out: Activity Level (Syk HTRF assay IC50)
[3] = IC50 activity level, read-out: Activity Level

| pIC50 [1] | pIC50 [2] | SMILES | also measured |
| --- | --- | --- | --- |
| 6.60 to 11.30 |  | O=c1cc(Cc2cccc3nc(Nc4ccc(C(F)(F)F)cc4)nn23)cc[nH]1 [Example 317, 4-((2-(4-(trifluoromethyl)phenylamino)-[1,2,4]triazolo[1,5-a]pyridin-5-yl)methyl)pyridin-2(1H)-one] |  |
|  | 6.30 to 6.60 | Cc1n[nH]c2cc(Nc3nc4cccc(CN5CC(C)(O)C5)n4n3)ccc12 [Example 169, 3-methyl-1-((2-(3-methyl-1H-indazol-6-ylamino)-[1,2,4]triazolo[1,5-a]pyridin-5-yl)methyl)azetidin-3-ol] |  |
| 5.00 to 6.00 |  | CNC(=O)c1ccc(Nc2nc3cccc(O[C@H]4CC[C@@H](N)CC4)n3n2)cc1 [Example 283, cis-4-(5-(4-aminocyclohexyloxy)-[1,2,4]triazolo[1,5-a]pyridin-2-ylamino)-N-methylbenzamide] |  |
|  |  | COCc1n[nH]c2cc(Nc3nc4cccc(CC5CCOCC5)n4n3)ccc12 [Example 552, N-(3-(methoxymethyl)-1H-indazol-6-yl)-5-((tetrahydro-2H-pyran-4-yl)methyl)-[1,2,4]triazolo[1,5-a]pyridin-2-amine] | pIC50 [3]: 6.60 to 11.30 |
| 6.60 to 11.30 |  | COc1cc(Nc2nc3cccc(N[C@H]4CC[C@@H](O)CC4)n3n2)ccn1 [Example 378, cis-4-(2-(2-methoxypyridin-4-ylamino)-[1,2,4]triazolo[1,5-a]pyridin-5-ylamino)cyclohexanol] |  |
| 5.00 to 6.00 |  | CNC(=O)c1ccc(Nc2nc3cccc(C[C@H]4CC[C@@H](O)C4)n3n2)cc1 (single isomer, unassigned; diastereomer 2) [Example 214, 4-(5-((3-hydroxycyclopentyl)methyl)-[1,2,4]triazolo[1,5-a]pyrridin-2-ylamino)-N-methylbenzamide (diastereomer 2)] |  |
|  | 6.60 to 11.30 | O=C1c2ccc(Nc3nc4cccc(N[C@H]5CC[C@@H](O)CC5)n4n3)cc2CN1CCO [Example 198, cis-5-(5-(4-hydroxycyclohexylamino)-[1,2,4]triazolo[1,5-a]pyridin-2-ylamino)-2-(2-hydroxyethyl)isoindolin-1-one] |  |
|  |  | Cc1nnc2cc(Nc3nc4cccc(NC5CCOCC5)n4n3)ccn12 [Example 534, N^2-(3-methyl-[1,2,4]triazolo[4,3-a]pyridin-7-yl)-N^5-(tetrahydro-2H-pyran-4-yl)-[1,2,4]triazolo[1,5-a]pyridine-2,5-diamine] | pIC50 [3]: 5.00 to 6.00 |
|  | 6.60 to 11.30 | OCc1nc2ccc(Nc3nc4cccc(-c5cccc(F)c5)n4n3)cc2[nH]1 [compound 3, (6-(5-(3-fluorophenyl)-[1,2,4]triazolo[1,5-a]pyridin-2-ylamino)-1H-benzo[d]imidazol-2-yl)methanol] |  |
| 5.00 to 6.00 |  | Oc1cc(Nc2nc3cccc(N[C@H]4CC[C@@H](O)CC4)n3n2)ccn1 [Example 331, cis-4-(5-(4-hydroxycyclohexylamino)-[1,2,4]triazolo[1,5-a]pyridin-2-ylamino)pyridin-2-ol] |  |
|  | 6.60 to 11.30 | Cc1cc(Nc2nc3cccc(NC4CCOCC4)n3n2)cc2c1C(C)(C)C(=O)N2 [compound 125, 3,3,4-trimethyl-6-(5-(tetrahydro-2H-pyran-4-ylamino)-[1,2,4]triazolo[1,5-a]pyridin-2-ylamino)indolin-2-one] |  |
| 6.60 to 11.30 |  | CC(c1cccc2nc(Nc3ccc(C(F)(F)F)cc3)nn12)N1CCNC(=O)C1 (centres unmarked) [Example 263, 4-(1-(2-(4-(trifluoromethyl)phenylamino)-[1,2,4]triazolo[1,5-a]pyridin-5-yl)ethyl)piperazin-2-one] |  |
|  |  | CN(c1cccc2nc(Nc3ccc4c(cnn4C)c3)nn12)C1CCOCC1 [Example 542, N^5-methyl-N^2-(1-methyl-1H-indazol-5-yl)-N^5-(tetrahydro-2H-pyran-4-yl)-[1,2,4]triazolo[1,5-a]pyridine-2,5-diamine] | pIC50 [3]: 6.60 to 11.30 |
|  | 6.60 to 11.30 | c1ccc(-c2cccc3nc(Nc4ccc5oncc5c4)nn23)cc1 [compound 43, N-(5-phenyl-[1,2,4]triazolo[1,5-a]pyridin-2-yl)benzo[d]isoxazol-5-amine] |  |
